The source of these data is US20230372498A1, “PLK1 SELECTIVE DEGRADATION INDUCING COMPOUND” (UPPTHERA, priority 2020, published 2023).

The assay addresses T1, PLK1 (Homo sapiens, UniProt P53350).
T1 construct: endogenous in cells; host or cells: HeLa
As to the kind of experiment: PLK1 protein degradation in HeLa cells, Western blotting (PLK1/GAPDH ratio). It counts as cell-based. The following applies: 6 hours compound incubation; for DC50: measured only if the grade of Dmax is A or B; for Dmax: thymidine block and release, 10 points three-fold from 3 μM, PLK1 to GAPDH ratio, read-out: Dmax. The method in brief:
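PLK1 level measured by Western blot as PLK1/GAPDH in HeLa lysates (15 μg protein per lane). Cells were blocked with 2 mM thymidine 24 h, released 4 h, and exposed 6 h to compound, 10 concentrations, 3-fold steps, top 3 μM.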
(A western blot detects proteins with antibodies after separation by electrophoresis.)

Molecules are shown by their SMILES.

T1 sequence (P53350 whole entry): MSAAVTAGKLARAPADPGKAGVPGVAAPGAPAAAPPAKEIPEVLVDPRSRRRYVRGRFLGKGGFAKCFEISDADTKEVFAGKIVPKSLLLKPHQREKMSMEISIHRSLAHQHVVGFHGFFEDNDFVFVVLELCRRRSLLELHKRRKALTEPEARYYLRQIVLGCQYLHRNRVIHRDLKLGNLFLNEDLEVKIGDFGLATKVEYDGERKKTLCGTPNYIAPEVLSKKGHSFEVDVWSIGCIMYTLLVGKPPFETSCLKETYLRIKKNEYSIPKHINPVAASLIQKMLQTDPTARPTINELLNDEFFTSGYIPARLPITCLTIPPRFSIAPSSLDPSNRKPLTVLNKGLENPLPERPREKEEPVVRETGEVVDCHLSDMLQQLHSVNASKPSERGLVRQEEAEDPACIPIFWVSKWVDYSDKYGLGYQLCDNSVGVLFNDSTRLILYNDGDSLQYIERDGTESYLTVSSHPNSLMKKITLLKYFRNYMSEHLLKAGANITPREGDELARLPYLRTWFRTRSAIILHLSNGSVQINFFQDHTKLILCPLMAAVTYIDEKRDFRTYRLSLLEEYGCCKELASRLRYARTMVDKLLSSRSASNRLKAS

With `COc1cc(C(=O)NC2CCN(CCCCCCCc3cncc(CNC(=O)COc4cccc5c4C(=O)N(C4CCC(=O)NC4=O)C5=O)c3)CC2)c(F)cc1Nc1ncc2c(n1)N(C1CCCC1)CC(F)(F)C(=O)N2C` (stereo not drawn) [Compound 64, 4-((9-cyclopentyl-7,7-difluoro-5-methyl-6-oxo-6,7,8,9-tetrahydro-5H-pyrimido[4,5-b][1,4]diazepin-2-yl)amino)-N-(1-(7-(5-((2-((2-(2,6-dioxopiperidin-3-yl)-1,3-dioxoisoindolin-4-yl)oxy)acetamido)methyl)pyridin-3-yl)heptyl)piperidin-4-yl)-2-fluoro-5-methoxybenzamide], the DC50 is at most 50 nM and the maximal degradation (Dmax) was at least 80%.
Consider `COc1cc(C(=O)NC2CCN(Cc3cn(CCCC(=O)Nc4cccc5c4C(=O)N(C4CCC(=O)NC4=O)C5=O)nn3)CC2)c(F)cc1Nc1ncc2c(n1)N(C1CCCC1)CC(F)(F)C(=O)N2C` (stereo not drawn) [Compound 46, 4-((9-cyclopentyl-7,7-difluoro-5-methyl-6-oxo-6,7,8,9-tetrahydro-5H-pyrimido[4,5-b][1,4]diazepin-2-yl)amino)-N-(1-((1-(4-((2-(2,6-dioxopiperidin-3-yl)-1,3-dioxoisoindolin-4-yl)amino)-4-oxobutyl)-1H-1,2,3-triazol-4-yl)methyl)piperidin-4-yl)-2-fluoro-5-methoxybenzamide], for which the maximal degradation (Dmax) is under 60%.
On to `COc1cc(C(=O)NC2CCN(CCOCCOCCOCCOCCOCCOCCOCCNc3cccc4c3C(=O)N(C3CCC(=O)NC3=O)C4=O)CC2)c(F)cc1Nc1ncc2c(n1)N(C1CCCC1)CC(F)(F)C(=O)N2C` (stereo not drawn) [Example 172, 4-((9-cyclopentyl-7,7-difluoro-5-methyl-6-oxo-6,7,8,9-tetrahydro-5H-pyrimido[4,5-b][1,4]diazepin-2-yl)amino)-N-(1-(23-((2-(2,6-dioxopiperidin-3-yl)-1,3-dioxoisoindolin-4-yl)amino)-3,6,9,12,15,18,21-heptaoxatricosyl)piperidin-4-yl)-2-fluoro-5-methoxybenzamide], for which the Dmax was at least 80%.
Regarding `COc1cc(C(=O)NCCCOCCCOCCNc2cccc3c2C(=O)N(C2CCC(=O)NC2=O)C3=O)ccc1Nc1ncc2c(n1)N(C1CCCC1)CC(F)(F)C(=O)N2C` (stereo not drawn) [Example 169, 4-((9-cyclopentyl-7,7-difluoro-5-methyl-6-oxo-6,7,8,9-tetrahydro-5H-pyrimido[4,5-b][1,4]diazepin-2-yl)amino)-N-(3-(3-(2-((2-(2,6-dioxopiperidin-3-yl)-1,3-dioxoisoindolin-4-yl)amino)ethoxy)propoxy)propyl)-3-methoxybenzamide], the Dmax was at least 80%.
Take `COc1cc(C(=O)NC2CCN(CCCCOCCCOCCOCCNc3cccc4c3C(=O)N(C3CCC(=O)NC3=O)C4=O)CC2)c(F)cc1Nc1ncc2c(n1)N(C1CCCC1)CC(F)(F)C(=O)N2C` (stereo not drawn) [Compound 23, 4-((9-cyclopentyl-7,7-difluoro-5-methyl-6-oxo-6,7,8,9-tetrahydro-5H-pyrimido[4,5-b][1,4]diazepin-2-yl)amino)-N-(1-(4-(3-(2-(2-((2-(2,6-dioxopiperidin-3-yl)-1,3-dioxoisoindolin-4-yl)amino)ethoxy)ethoxy)propoxy)butyl)piperidin-4-yl)-2-fluoro-5-methoxybenzamide]: the DC50 was at most 50 nM and the Dmax is at least 80%.
The corresponding values for `COc1cc(C(=O)NC2CCN(CCOCCCNc3cccc4c3C(=O)N(C3CCC(=O)NC3=O)C4=O)C2)c(F)cc1Nc1ncc2c(n1)N(C1CCCC1)CC(F)(F)C(=O)N2C` (stereo not drawn) [Example 110, 4-((9-cyclopentyl-7,7-difluoro-5-methyl-6-oxo-6,7,8,9-tetrahydro-5H-pyrimido[4,5-b][1,4]diazepin-2-yl)amino)-N-(1-(2-(3-((2-(2,6-dioxopiperidin-3-yl)-1,3-dioxoisoindolin-4-yl)amino)propoxy)ethyl)pyrrolidin-3-yl)-2-fluoro-5-methoxybenzamide] are at most 50 nM and at least 80%.

Broadly, the DC50 is the concentration giving 50% degradation. For orientation: Dmax means the largest share of the target that was removed.
